Data from patent US20150197492A1, “NOVEL INDENO[1,2-c]QUINOLIN-11-ONE DERIVATIVES, PREPARATION METHOD AND APPLICATION THEREOF” (National Defense Medical Center, priority 2014, published 2015).

Key:
Test in all cases: cells
Format in all cases: cell-based
SK-MEL-5 = tested on: SK-MEL-5
KM12 = tested on: KM12
SK-MEL-2 = conditions: Melanoma SK-MEL-2
HS 578T = tested on: HS 578T
SF-268 = tested on: SF-268
CCRF-CEM = tested on: CCRF-CEM
NCI-H23 = tested on: NCI-H23
786-0 = tested on: 786-0
SK-MEL-28 = tested on: SK-MEL-28
NCI/ADR-RES = tested on: NCI/ADR-RES
NCI-H522 = tested on: NCI-H522
HCT-15 = tested on: HCT-15
HOP-62 = tested on: HOP-62
IGROV1 = tested on: IGROV1
HT29 = tested on: HT29
[1] = Homo sapiens, CNS Cancer SF-268
[2] = Homo sapiens, Non-Small Cell Lung Cancer NCI-H23
[3] = Homo sapiens, Non-Small Cell Lung Cancer HOP-62

O=C1c2cc(Cl)ccc2-c2c(N3CCNCC3)nc3ccccc3c21 [SJ-10, 9-Chloro-6-(piperazin-1-yl)-11H-indeno[1,2-c]quinolin-11-one] was tested, and the CC50 (SK-MEL-5; Homo sapiens, Melanoma SK-MEL-5, read-out: LC50 (the source's name)) was greater than 100 µM, the TGI (SK-MEL-5; Melanoma SK-MEL-5) was greater than 100 µM and the growth percentage (SK-MEL-5; SK-MEL-5 (Melanoma), 10 μM, 48 hours) was 59.18%. The TGI (KM12; Colon Cancer KM12) was greater than 100 µM, the GI50 (KM12; Homo sapiens, Colon Cancer KM12) was 2.5 µM and the CC50 (KM12; Homo sapiens, Colon Cancer KM12, read-out: LC50 (the source's name)) was greater than 100 µM. It also gave a growth percentage (KM12; KM12 (Colon Cancer), 10 μM, 48 hours) of -47.09%, a GI50 (SK-MEL-2; Homo sapiens) of 7.36 µM and a CC50 (SK-MEL-2; Homo sapiens, read-out: LC50 (the source's name)) greater than 100 µM. The TGI (SK-MEL-2) was greater than 100 µM, the TGI (HS 578T; Breast Cancer HS 578T) was greater than 100 µM and the growth percentage (HS 578T; HS 578T (Breast Cancer), 10 μM, 48 hours) was 60.88%. It also gave a GI50 (HS 578T; Homo sapiens, Breast Cancer HS 578T) of 4.77 µM, a CC50 (HS 578T; Homo sapiens, Breast Cancer HS 578T, read-out: LC50 (the source's name)) greater than 100 µM and a TGI (SF-268; CNS Cancer SF-268) greater than 100 µM. The GI50 (SF-268; [1]) was 8.71 µM, the LC50 (SF-268; [1]) was greater than 100 µM and the growth percentage (SF-268; SF-268 (CNS Cancer), 10 μM, 48 hours) was 34.33%. The growth percentage (CCRF-CEM; CCRF-CEM (Leukemia), 10 μM, 48 hours) was -35.45%, the GI50 (CCRF-CEM; Homo sapiens, Leukemia CCRF-CEM) was 6.32 µM and the CC50 (CCRF-CEM; Homo sapiens, Leukemia CCRF-CEM, read-out: LC50 (the source's name)) was greater than 100 µM. For the same molecule, the TGI (CCRF-CEM; Leukemia CCRF-CEM) was greater than 100 µM, the GI50 (NCI-H23; [2]) was 6.65 µM and the LC50 (NCI-H23; [2]) was greater than 100 µM. It also gave a growth percentage (NCI-H23; NCI-H23 (Non-Small Cell Lung Cancer), 10 μM, 48 hours) of 49.19%, a TGI (NCI-H23; Non-Small Cell Lung Cancer NCI-H23) greater than 100 µM and a growth percentage (786-0; 786-0 (Renal Cancer), 10 μM, 48 hours) of 25.31%. For the same molecule, the GI50 (786-0; Homo sapiens, 786-0, Renal Cancer 786-O) was 23.5 µM, the CC50 (786-0; Homo sapiens, 786-0, Renal Cancer 786-O, read-out: LC50 (the source's name)) was greater than 100 µM and the TGI (786-0; Renal Cancer 786-O) was greater than 100 µM. The GI50 (SK-MEL-28; Homo sapiens, Melanoma SK-MEL-28) was greater than 100 µM, the CC50 (SK-MEL-28; Homo sapiens, Melanoma SK-MEL-28, read-out: LC50 (the source's name)) was greater than 100 µM and the TGI (SK-MEL-28; Melanoma SK-MEL-28) was greater than 100 µM. The growth percentage (SK-MEL-28; SK-MEL-28 (Melanoma), 10 μM, 48 hours) was -91.38%, the GI50 (NCI/ADR-RES; Homo sapiens, Ovarian Cancer NCI/ADR-RES) was 22.5 µM and the CC50 (NCI/ADR-RES; Homo sapiens, Ovarian Cancer NCI/ADR-RES, read-out: LC50 (the source's name)) was greater than 100 µM. For the same molecule, the growth percentage (NCI/ADR-RES; NCI/ADR-RES (Ovarian Cancer), 10 μM, 48 hours) was -4.00%, the TGI (NCI/ADR-RES; Ovarian Cancer NCI/ADR-RES) was greater than 100 µM and the GI50 (NCI-H522; Homo sapiens, Non-Small Cell Lung Cancer NCI-H522) was 3.98 µM. The CC50 (NCI-H522; Homo sapiens, Non-Small Cell Lung Cancer NCI-H522, read-out: LC50 (the source's name)) was greater than 100 µM, the growth percentage (NCI-H522; NCI-H522 (Non-Small Cell Lung Cancer), 10 μM, 48 hours) was 18.08% and the TGI (NCI-H522; Non-Small Cell Lung Cancer NCI-H522) was greater than 100 µM. It also gave a TGI (HCT-15; Colon Cancer HCT-15) greater than 100 µM, a growth percentage (HCT-15; HCT-15 (Colon Cancer), 10 μM, 48 hours) of -78.92% and a GI50 (HCT-15; Homo sapiens, Colon Cancer HCT-15) of 4.34 µM. It also gave a CC50 (HCT-15; Homo sapiens, Colon Cancer HCT-15, read-out: LC50 (the source's name)) greater than 100 µM, a growth percentage (HOP-62; HOP-62 (Non-Small Cell Lung Cancer), 10 μM, 48 hours) of -61.80% and a GI50 (HOP-62; [3]) of 12.3 µM. The LC50 (50% lethal concentration) (HOP-62; [3]) was greater than 100 µM, the TGI (HOP-62; Non-Small Cell Lung Cancer HOP-62) was greater than 100 µM and the GI50 (IGROV1; Homo sapiens, IGROV-1, Ovarian Cancer IGROV1) was 5.94 µM. For the same molecule, the CC50 (IGROV1; Homo sapiens, IGROV-1, Ovarian Cancer IGROV1, read-out: LC50 (the source's name)) was greater than 100 µM, the growth percentage (IGROV1; IGROV1 (Ovarian Cancer), 10 μM, 48 hours) was 3.23% and the TGI (IGROV1; Ovarian Cancer IGROV1) was greater than 100 µM. It also gave a TGI (HT29; Colon Cancer HT29) greater than 100 µM, a growth percentage (HT29; HT29 (Colon Cancer), 10 μM, 48 hours) of -80.89% and a GI50 (HT29; Homo sapiens, HT-29, Colon Cancer HT29) of 7.84 µM. It also gave a CC50 (HT29; Homo sapiens, HT-29, Colon Cancer HT29, read-out: LC50 (the source's name)) greater than 100 µM.
